Measurements: patent US5332726A, “Antithrombotic peptides and pseudopeptides” (Rhone-Poulenc Rorer Pharmaceuticals Inc., priority 1992, dated 1994)
Non-standard residues stand in square brackets, D forms with d. Residues, ends and D or L forms follow the SMILES beside them. Orn = NCCC[C@H](N)C(=O)O

Assays:
[1] = molecular target: thrombin-stimulated platelets (Homo sapiens, UniProt P05106+P08514); assay: Fibrinogen-Binding Assay (125I-fibrinogen binding to platelets); conditions: for IC50: 125I-fibrinogen 0.176 μmol/liter, thrombin-stimulated platelets, read-out: Inhibition of 125I-Fibrinogen Binding to Platelets IC50
thrombin-stimulated platelets, sequence (P08514 32-1039): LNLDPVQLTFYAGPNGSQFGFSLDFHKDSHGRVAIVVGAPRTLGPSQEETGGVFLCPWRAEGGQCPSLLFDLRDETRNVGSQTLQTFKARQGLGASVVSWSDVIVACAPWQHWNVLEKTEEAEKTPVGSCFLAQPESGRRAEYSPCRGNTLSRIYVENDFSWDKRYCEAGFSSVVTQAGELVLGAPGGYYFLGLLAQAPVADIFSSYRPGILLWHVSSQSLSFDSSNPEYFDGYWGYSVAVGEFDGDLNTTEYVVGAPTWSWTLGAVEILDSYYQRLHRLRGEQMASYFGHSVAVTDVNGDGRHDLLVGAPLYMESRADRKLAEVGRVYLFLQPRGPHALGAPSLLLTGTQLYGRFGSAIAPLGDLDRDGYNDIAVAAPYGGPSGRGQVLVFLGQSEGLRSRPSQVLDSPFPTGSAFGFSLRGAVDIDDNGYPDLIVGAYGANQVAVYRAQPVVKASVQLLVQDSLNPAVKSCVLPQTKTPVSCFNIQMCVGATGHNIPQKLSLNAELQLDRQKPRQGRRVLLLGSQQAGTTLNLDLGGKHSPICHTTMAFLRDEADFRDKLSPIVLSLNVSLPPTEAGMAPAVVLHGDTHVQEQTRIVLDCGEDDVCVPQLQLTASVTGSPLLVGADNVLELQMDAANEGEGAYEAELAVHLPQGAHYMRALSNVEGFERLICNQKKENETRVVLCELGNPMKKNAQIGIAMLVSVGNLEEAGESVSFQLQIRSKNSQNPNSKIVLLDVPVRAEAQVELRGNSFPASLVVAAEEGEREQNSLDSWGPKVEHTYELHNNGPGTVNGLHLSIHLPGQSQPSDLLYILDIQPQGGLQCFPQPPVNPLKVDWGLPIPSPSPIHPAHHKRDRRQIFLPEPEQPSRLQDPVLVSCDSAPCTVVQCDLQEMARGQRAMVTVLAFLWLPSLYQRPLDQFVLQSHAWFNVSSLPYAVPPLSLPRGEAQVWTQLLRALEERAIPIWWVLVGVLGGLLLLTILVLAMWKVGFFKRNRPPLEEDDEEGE
thrombin-stimulated platelets, sequence (P05106 27-788): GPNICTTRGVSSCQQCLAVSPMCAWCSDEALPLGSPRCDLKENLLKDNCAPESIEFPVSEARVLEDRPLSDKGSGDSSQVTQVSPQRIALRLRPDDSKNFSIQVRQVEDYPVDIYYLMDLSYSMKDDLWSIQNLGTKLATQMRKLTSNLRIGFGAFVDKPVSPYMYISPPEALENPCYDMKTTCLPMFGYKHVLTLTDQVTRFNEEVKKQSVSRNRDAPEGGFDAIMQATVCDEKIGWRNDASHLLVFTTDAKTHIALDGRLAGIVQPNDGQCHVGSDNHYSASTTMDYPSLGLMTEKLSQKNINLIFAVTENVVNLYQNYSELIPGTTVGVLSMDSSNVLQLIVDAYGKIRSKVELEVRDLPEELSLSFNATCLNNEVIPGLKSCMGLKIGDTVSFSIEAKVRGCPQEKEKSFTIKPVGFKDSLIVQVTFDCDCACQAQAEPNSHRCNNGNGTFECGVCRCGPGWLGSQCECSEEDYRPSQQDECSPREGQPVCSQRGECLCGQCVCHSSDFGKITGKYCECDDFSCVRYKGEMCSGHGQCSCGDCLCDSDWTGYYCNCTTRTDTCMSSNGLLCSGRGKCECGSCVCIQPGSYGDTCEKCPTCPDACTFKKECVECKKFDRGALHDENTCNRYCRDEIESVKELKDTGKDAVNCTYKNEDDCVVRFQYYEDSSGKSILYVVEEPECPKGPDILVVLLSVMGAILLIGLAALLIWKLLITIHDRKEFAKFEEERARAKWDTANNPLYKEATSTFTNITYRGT
Description: Platelets are washed free of plasma constituents by the albumin density-gradient technique of Walsh, P. N., et al., Br. J. Haematol. […] After these additions, the final platelet count in the mixture is 1×10^11 /liter. After incubation for an additional 30 minutes at 22°-25° C., bound and free ligand are separated by centrifuging 50 μl of the mixture through 300 μl of 20% sucrose at 12,000×g for 4 minutes. The platelet pellet is then separated from the rest of the mixture to determine platelet-bound radioactivity. Nonspecific binding is measured in mixtures containing an excess of unlabeled ligand. […] The IC50 is derived by plotting residual fibrinogen binding against the logarithm of the sample compound's concentration.

[2] = molecular target: fixed activated platelets (Homo sapiens, UniProt P05106+P08514); assay: Platelet Aggregation Assay (fibrinogen-mediated aggregation of fixed-activated platelets); format: cell-based; conditions: for inhibition at 25 µM: read-out: Inhibition of Fibrinogen Mediated Platelet Aggregation % inhibition at 25 μM; for IC50: fixed activated platelets, human fibrinogen 250 μg/ml, read-out: Inhibition of Fibrinogen Mediated Platelet Aggregation IC50
fixed activated platelets, sequence (P08514 32-1039): as the sequence (P08514 32-1039) above
fixed activated platelets, sequence (P05106 27-788): as the sequence (P05106 27-788) above
Description: PLATELET AGGREGATION ASSAY
Preparation of Fixed-Activated Platelets
To the activated platelets is added paraformaldehyde to a final concentration of 0.50% and this incubated at room temperature for 30 minutes. The fixed activated platelets are then collected by centrifugation at 650×g for 15 minutes.
Platelet Aggregation Assay
The fixed activated platelets are incubated with a selected dose of the compound to be tested for platelet aggregation inhibition for one minute and aggregation initiated by addition of human fibrinogen to a final concentration of 250 μg/ml. A platelet aggregation profiler Model PAP-4 is used to record the platelet aggregation.

`CC(C)[C@H](NC(=O)[C@H](CC(=O)O)NC(=O)CN(C)C(=O)CCCCCCNC(=N)N)C(=O)O` [7-Guanidinoheptanoyl-L-sarcosyl-L-aspartyl-L-valine] gave an IC50 [1] of 5100 nM and an inhibition at 25 µM [2] of 14%.
Molecule `CCN(CC(=O)N[C@@H](CC(=O)O)C(=O)N[C@@H](Cc1ccccc1)C(=O)O)C(=O)CCCCCNC(=N)N` [6-Guanidinohexanoyl-N-ethylglycyl-L-aspartyl-L-phenylalanine] has an IC50 [1] of 200 nM, an IC50 [2] of 1300 nM and an inhibition at 25 µM [2] of 97%.
`CCN(CC(=O)N[C@@H](CC(=O)O)C(=O)N[C@H](C(=O)O)C(C)C)C(=O)CCCCCCn1ccnc1` [7-(Imidazol-1-yl)heptanoyl-N-(ethyl)glycyl-L-aspartyl-L-valine] was tested, and the IC50 [1] was 1300 nM, the IC50 [2] was 10800 nM and the inhibition at 25 µM [2] was 82%.
In the case of `CC(C)[C@H](NC(=O)[C@H](CC(=O)O)NC(=O)C=CCCCCCNC(=N)N)C(=O)O` [8-Guanidinooct-2-enoyl-L-aspartyl-L-valine], the IC50 [1] is reported as 840 nM, the IC50 [2] is reported as 290 nM and the inhibition at 25 µM [2] is reported as 96%.
For `CC(C)[C@H](NC(=O)[C@H](CC(=O)O)NC(=O)CN(C(=O)CCCCCNC(=N)N)C(C)C)C(=O)O` [6-Guanidinohexanoyl-N-(2-propyl)glycyl-L-aspartyl-L-valine], the IC50 [1] was 1100 nM, the IC50 [2] was 8600 nM and the inhibition at 25 µM [2] was 83%.
With `CC(C)[C@H](NC(=O)[C@H](CC(=O)O)NC(=O)CCCCCCCCN)C(=O)O` [9-aminononanoyl-L-aspartyl-L-valine] the IC50 [1] was 30000 nM, the IC50 [2] was 19100 nM and the inhibition at 25 µM [2] was 10.1%.
In the case of `CC(C)[C@H](NC(=O)[C@H](CC(=O)O)NC(=O)CCCCCCCCNC(=N)N)C(=O)O` [9-guanidinononanoyl-L-aspartyl-L-valine], the IC50 [1] is reported as 200 nM, the IC50 [2] is reported as 1700 nM and the inhibition at 25 µM [2] is reported as 96%.
With `CCC(C)COC(=O)[C@H](CCCNC(=N)N)NC(=O)[C@H](CC(=O)O)NC(=O)CCCCCCCCNC(=N)N` (stereo partly drawn) [9-Guanidinononanoyl-L-aspartyl-L-arginine-2-methyl-butylester] the IC50 [1] was 120 nM, the IC50 [2] was 730 nM and the inhibition at 25 µM [2] was 97%.
For `CN(CC(=O)N[C@@H](CC(=O)O)C(=O)N[C@@H](Cc1ccc(O)cc1)C(=O)O)C(=O)CCCCCNC(=N)N` [6-Guanidinohexanoyl-sarcosyl-L-aspartyl-L-tyrosine], the IC50 [1] was 3600 nM, the IC50 [2] was 7300 nM and the inhibition at 25 µM [2] was 94%.
`CCN(CC(=O)N[C@@H](CC(=O)O)C(=O)N[C@@H](Cc1ccc(O)cc1)C(=O)O)C(=O)CCCCCNC(=N)N` [6-Guanidinohexanoyl-N-(ethyl)glycyl-L-aspartyl-L-tyrosine] gave an IC50 [1] of 180 nM, an IC50 [2] of 1250 nM and an inhibition at 25 µM [2] of 95%.
Molecule `N=C(N)NCCCCCCCC(=O)N[C@@H](CC(=O)O)C(=O)N[C@@H](CCCCN)C(=O)O` [8-Guanidinooctanoyl-L-aspartyl-L-lysine] has an IC50 [1] of 780 nM, an IC50 [2] of 1600 nM and an inhibition at 25 µM [2] of 93%.
Work on `CC(C)COC(=O)[C@H](CCCNC(=N)N)NC(=O)[C@H](CC(=O)O)NC(=O)CCCCCCCCNC(=N)N` [9-guanidinononanoyl-L-aspartyl-L-arginine isobutyl ester] yielded an IC50 [1] of 625 nM, an IC50 [2] of 540 nM and an inhibition at 25 µM [2] of 97%.
In the case of `CCN(CC(=O)N[C@@H](CC(=O)O)C(=O)N[C@H](C(=O)O)C(C)C)C(=O)CCCNC(=N)N` [4-Guanidinobutanoyl-N-(ethyl)glycyl-L-aspartyl-L-valine], the IC50 [1] is reported as 450 nM, the IC50 [2] is reported as 2700 nM and the inhibition at 25 µM [2] is reported as 94%.
`CC(C)CCOC(=O)[C@H](CCCNC(=N)N)NC(=O)[C@H](CC(=O)O)NC(=O)CCCCCCCCNC(=N)N` [9-Guanidinononanoyl-L-aspartyl-L-arginine-3-methylbutyl ester] gave an IC50 [1] of 150 nM, an IC50 [2] of 1700 nM and an inhibition at 25 µM [2] of 97%.
For `CC(C)[C@H](NC(=O)[C@H](CC(=O)O)NC(=O)CNC(=O)[C@@H](N)CCCN)C(=O)O` [L-ornithylglycyl-L-aspartyl-L-valine] (H-[Orn]GDV-OH), the inhibition at 50 µg/mL ([1]; read-out: Inhibition of 125I-Fibrinogen Binding to Platelets: Inhibited <50% at 50 μg/ml) was less than 50%, the IC50 [2] was 15000 nM and the inhibition at 100 µM ([2]; read-out: Inhibition of Fibrinogen Mediated Platelet Aggregation % inhibition at 100 μM) was 80%.
